The values below come from patent US10787462B2, “Heterocyclic compound” (TAKEDA PHARMACEUTICAL COMPANY LIMITED, priority 2015, dated 2020).

The experiment deals with T1, human RIPK1 (1-375) (Homo sapiens, UniProt Q13546).
T1 construct: human RIPK1 (1-375) gene; GST; made in house; host or cells: Sf-9 insect cells
T1 sequence (Q13546 1-375): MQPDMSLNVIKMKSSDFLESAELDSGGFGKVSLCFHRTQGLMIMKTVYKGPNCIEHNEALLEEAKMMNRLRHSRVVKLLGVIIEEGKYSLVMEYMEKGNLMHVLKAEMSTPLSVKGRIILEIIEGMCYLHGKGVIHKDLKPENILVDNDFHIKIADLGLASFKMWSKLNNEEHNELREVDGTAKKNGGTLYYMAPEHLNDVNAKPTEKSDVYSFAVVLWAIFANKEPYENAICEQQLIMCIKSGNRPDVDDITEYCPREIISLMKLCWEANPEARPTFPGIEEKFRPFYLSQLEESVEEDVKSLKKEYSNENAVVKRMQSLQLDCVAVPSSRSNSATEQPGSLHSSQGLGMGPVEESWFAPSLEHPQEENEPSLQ
Kind of experiment: Human RIPK1 enzyme inhibitory effect (ADP-Glo Kinase Assay). The experiment is classed as biochemical. The note with it: well without enzyme = 100% inhibition; for inhibition at 10 µM: read-out: human RIPK1 enzyme inhibitory effect at 10 μM (% inhibition), 10 μM test compound; for human RIPK1 enzyme inhibitory effect at 10 μM (% inhibition): 10 μM test compound. As for the experimental part:
Experimental Example 1: Human RIPK1 Enzyme Inhibitory Effect
Enzyme was prepared by transducing human RIPK1 (1-375) gene to Sf-9 insect cells, and purifying using GST affinity column, and enzyme activity evaluation was performed using the enzyme. The enzyme was used after preservation at −70° C. The RIPK1 enzyme inhibitory activity of the test compound was measured using ADP-Glo™ Kinase Assay (Promega) according the following experiment methods. The test compound diluted with assay buffer (25 mM HEPES (pH 7.5), 10 mM MgCl2, 0.01% Tween-20, 2 mM DTT) was added to 384 well plate by each 2 μL. Next, RIPK1 enzyme solution diluted with the assay buffer was added thereto by each 2 μL, and the mixture was incubated at room temperature for 20 min. After the incubation, 0.6 mM ATP solution was added thereto by each 2 μL to initiate an enzyme reaction. The mixture was incubated at room temperature for 120 min, and ADP-Glo solution prepared according to Promega protocol was added to the 384 well plate by each 3 μL, and the reaction was performed at room temperature for 40 min. Then, Kinase-Detection solution was added to the 384 well plate by each 6 μL, and the reaction was performed at room temperature for 40 min. After the reaction, the luminescence intensity was measured by plate reader Envision (PerkinElmer).

For the molecule `CN1C(=O)[C@@H](N2CCc3c(nn(Cc4ccccc4)c3Cl)C2=O)COc2cc(C(=O)NCC(C)(C)O)ccc21` [Example 62, (3S)-3-(2-benzyl-3-chloro-7-oxo-2,4,5,7-tetrahydro-6H-pyrazolo[3,4-c]pyridin-6-yl)-N-(2-hydroxy-2-methylpropyl)-5-methyl-4-oxo-2,3,4,5-tetrahydro-1,5-benzoxazepine-8-carboxamide], the inhibition at 10 µM is 101%.

On to “(3S)-7-chloro-3-(3-chloro-1-oxo- 2-(pyrazin-2-ylmethyl)-2,4,5,7- tetrahydro-6H-pyrazolo[3,4- c]pyridin-6-yl)-5-methyl-2,3- dihydro-1,5-benzoxazepin-4(5H)- one [Example 74]”, for which the “human RIPK1 enzyme inhibitory effect at 10 μM (% inhibition)” value is 97%.

Consider `CN1C(=O)[C@@H](N2CCc3cn(Cc4ccccc4F)nc3C2=O)COc2ccccc21` [Example 9, (3S)-3-(2-(2-fluorobenzyl)-7-oxo-2,4,5,7-tetrahydro-6H-pyrazolo[3,4-c]pyridin-6-yl)-5-methyl-2,3-dihydro-1,5-benzoxazepin-4(5H)-one], for which the inhibition at 10 µM is 100%.

On to `COCc1ccc2c(c1)OC[C@H](N1CCc3c(nn(Cc4ccccc4)c3Cl)C1=O)C(=O)N2C` [Example 141, (3S)-3-(2-benzyl-3-chloro-7-oxo-2,4,5,7-tetrahydro-6H-pyrazolo[3,4-c]pyridin-6-yl)-8-(methoxymethyl)-5-methyl-2,3-dihydro-1,5-benzoxazepin-4(5H)-one], for which the inhibition at 10 µM came to 100%.

Take `CN1C(=O)[C@@H](N2CCc3cn(CC4COCCO4)nc3C2=O)COc2ccccc21` (stereo partly drawn) [Example 38, (3S)-3-(2-(1,4-dioxan-2-ylmethyl)-7-oxo-2,4,5,7-tetrahydro-6H-pyrazolo[3,4-c]pyridin-6-yl)-5-methyl-2,3-dihydro-1,5-benzoxazepin-4(5H)-one]: the inhibition at 10 µM was found to be 96%.

For `CNC(=O)c1ccc2c(c1)CCC(N1CCc3c(nn(Cc4ccccc4)c3Cl)C1=O)C(=O)N2C` (stereo not shown) [Example 136, 3-(2-benzyl-3-chloro-7-oxo-2,4,5,7-tetrahydro-6H-pyrazolo[3,4-c]pyridin-6-yl)-N,1-dimethyl-2-oxo-2,3,4,5-tetrahydro-1H-1-benzazepine-7-carboxamide], the “human RIPK1 enzyme inhibitory effect at 10 μM (% inhibition)” value (10 µM) is given as 101%.

`CN1C(=O)[C@@H](N2CCc3cn(Cc4ccc(Cl)cc4F)nc3C2=O)COc2ccccc21` [Example 168, (3S)-3-(2-(4-chloro-2-fluorobenzyl)-7-oxo-2,4,5,7-tetrahydro-6H-pyrazolo[3,4-c]pyridin-6-yl)-5-methyl-2,3-dihydro-1,5-benzoxazepin-4(5H)-one]: the inhibition at 10 µM stood at 100%.

As for `CN1C(=O)C(N2CCc3c(nn(Cc4ccccc4)c3Cl)C2=O)CCc2cccnc21` (stereo not shown) [Example 91, 7-(2-benzyl-3-chloro-7-oxo-2,4,5,7-tetrahydro-6H-pyrazolo[3,4-c]pyridin-6-yl)-9-methyl-5,6,7,9-tetrahydro-8H-pyrido[2,3-b]azepin-8-one], for the setting “10 µM”, the “human RIPK1 enzyme inhibitory effect at 10 μM (% inhibition)” value was 100%.

For the molecule `CNC(=O)c1ccc2c(c1)OC[C@H](N1CCc3c(nn(Cc4c(F)cccc4F)c3Cl)C1=O)C(=O)N2C` [Example 46, (3S)-3-(3-chloro-2-(2,6-difluorobenzyl)-7-oxo-2,4,5,7-tetrahydro-6H-pyrazolo[3,4-c]pyridin-6-yl)-N,5-dimethyl-4-oxo-2,3,4,5-tetrahydro-1,5-benzoxazepine-8-carboxamide], the inhibition at 10 µM amounted to 100%.

In the case of `CN1C(=O)C(N2CCc3c(nn(Cc4ccccc4F)c3Cl)C2=O)CCc2nn(C)cc21` (stereo not shown) [Example 120, 6-(3-chloro-2-(2-fluorobenzyl)-7-oxo-2,4,5,7-tetrahydro-6H-pyrazolo[3,4-c]pyridin-6-yl)-2,4-dimethyl-2,6,7,8-tetrahydropyrazolo[4,3-b]azepin-5(4H)-one], the “human RIPK1 enzyme inhibitory effect at 10 μM (% inhibition)” value (10 µM) was found to be 95%.

What is called inhibition is the relative decrease from the control value, in per cent.
